A word on the IC50: it is the concentration that gives 50% inhibition. A high value points to a need for much substance.

For one assay, the target named is c-Kit (Homo sapiens, UniProt P10721). Description: c-Kit biochemical assay (AlphaScreen). The source says:
(§1) AlphaScreen technology is a proximity assay which utilizes the increase in fluorescent signal occurring when donor and acceptor beads are close in proximity. Biotinylated poly(Glu,Tyr) 4:1 is used as the kinase substrate, in conjunction with streptavidin-coated donor beads and anti-phosphortyrosine antibody PY100-coated acceptor beads. Upon phosphorylation, the peptide substrate can bind to both donor and acceptor beads giving rise to an increase in fluorescence. Compounds, ATP, biotinylated poly(Glu, Tyr) and kinases are mixed in a volume of 20 uL for 1 hr at ambient temperature using Greiner 384-well white clear bottom medium binding plates. Following incubation a 10 uL solution containing […] AlphaScreen beads, 75 mM Hepes, pH 7.4, 300 mM NaCl, 120 mM EDTA, 0.3% BSA and 0.03% Tween-20 is added to each well. After 2-16 hr incubation of the beads, plates are read in a Perkin Elmer AlphaQuest reader. The IC50 values correlates well with those of radiometric assays.
c-Kit biochemical activity was assessed using AlphaScreen™ (Perkin Elmer) technology, described above. Test compounds, ATP, biotinylated poly(Glu, Tyr) and c-Kit kinase were combined in a volume of 20 μL in a 384-well white, medium binding microtiter plate (Greiner). Reaction mixtures were incubated for 1 hr at ambient temperature. Reactions were quenched by addition of 10 uL of […] AlphaScreen bead suspension containing 75 mM Hepes, pH 7.4, 300 mM NaCl, 120 mM EDTA, 0.3% BSA and 0.03% Tween-20. After 16 hr incubation at ambient temperature plates were read using an AlphaQuest reader (Perkin Elmer).

The target of the next assay is T1, flt-3 (Homo sapiens, UniProt P36888).
T1 construct: baculovirus expressed human Flt-3 kinase domain R571-S993
T1 sequence (P36888 571-993): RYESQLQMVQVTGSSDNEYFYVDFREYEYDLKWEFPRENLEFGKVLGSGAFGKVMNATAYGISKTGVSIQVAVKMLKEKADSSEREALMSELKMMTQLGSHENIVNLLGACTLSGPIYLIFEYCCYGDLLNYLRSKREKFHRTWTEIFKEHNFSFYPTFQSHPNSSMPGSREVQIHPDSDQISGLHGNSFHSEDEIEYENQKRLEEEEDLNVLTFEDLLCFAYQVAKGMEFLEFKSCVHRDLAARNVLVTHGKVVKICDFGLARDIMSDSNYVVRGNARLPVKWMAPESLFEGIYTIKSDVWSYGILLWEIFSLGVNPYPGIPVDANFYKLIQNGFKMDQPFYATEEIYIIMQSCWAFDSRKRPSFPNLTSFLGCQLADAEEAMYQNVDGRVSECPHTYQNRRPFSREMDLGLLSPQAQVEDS
Description: flt-3 Luciferase-Coupled Chemiluminescent Kinase assay (LCCA). Type of assay: biochemical. As for the experimental part:
(§2) In the LCCA assays, kinase activity is measured as the percent ATP consumed following the kinase reaction using luciferase-luciferin-coupled chemiluminescence. Greiner 384-well white, clear bottom, medium-binding plates are used for LCCA. Briefly, the kinase reaction is initiated by mixing compounds, ATP and kinase in a 20 uL volume. The mixture is incubated at ambient temperature for 2-4 hrs. At the end of the kinase reaction, a 20 uL luciferase-luciferin mix is added and the chemiluminescent signal is read using a Wallac Victor^2 reader. The luciferase-luciferin mix consists of 50 mM HEPES, pH 7.8, 8.5 ug/mL oxalic acid (pH 7.8), 5 (or 50) mM DTT, 0.4% Triton X-100, 0.25 mg/mL coenzyme A, 63 uM AMP, 28 ug/mL luciferin and 40,000 units of light/mL luciferase. For the LCCA assays, total ATP consumption has been standardized to 25-45% and the IC50 values correlates well with those determined by radiometric assays.
Flt-3 biochemical activity was assessed using a Luciferase-Coupled Chemiluminescent Kinase assay (LCCA) format. Kinase activity was measured as the percent ATP remaining following the kinase reaction. Remaining ATP was detected by luciferase-luciferin-coupled chemiluminescence. Specifically, the reaction was initiated by mixing test compounds, 5 μM ATP, 3 μM poly-EY and 5 nM Flt-3 (baculovirus expressed human Flt-3 kinase domain R571-S993) in a 20 uL assay buffer (20 mM Tris-HCL pH7.5, 10 mM MgCl2, 0.01% Triton X-100, 1 mM DTT, 2 mM MnCl2). The mixture is incubated at ambient temperature for 3 hours after which 20 uL luciferase-luciferin mix is added and the chemiluminescent signal read using a Wallac Victor^2 reader. The luciferase-luciferin mix consists of 50 mM HEPES, pH 7.8, 8.5 ug/mL oxalic acid (pH 7.8), 5 (or 50) mM DTT, 0.4% Triton X-100, 0.25 mg/mL coenzyme A, 63 uM AMP, 28 ug/mL luciferin and 40,000 units of light/mL luciferase.

The target in another assay is T2, EphB4 (Homo sapiens, UniProt P54760).
T2 sequence (P54760 16-987): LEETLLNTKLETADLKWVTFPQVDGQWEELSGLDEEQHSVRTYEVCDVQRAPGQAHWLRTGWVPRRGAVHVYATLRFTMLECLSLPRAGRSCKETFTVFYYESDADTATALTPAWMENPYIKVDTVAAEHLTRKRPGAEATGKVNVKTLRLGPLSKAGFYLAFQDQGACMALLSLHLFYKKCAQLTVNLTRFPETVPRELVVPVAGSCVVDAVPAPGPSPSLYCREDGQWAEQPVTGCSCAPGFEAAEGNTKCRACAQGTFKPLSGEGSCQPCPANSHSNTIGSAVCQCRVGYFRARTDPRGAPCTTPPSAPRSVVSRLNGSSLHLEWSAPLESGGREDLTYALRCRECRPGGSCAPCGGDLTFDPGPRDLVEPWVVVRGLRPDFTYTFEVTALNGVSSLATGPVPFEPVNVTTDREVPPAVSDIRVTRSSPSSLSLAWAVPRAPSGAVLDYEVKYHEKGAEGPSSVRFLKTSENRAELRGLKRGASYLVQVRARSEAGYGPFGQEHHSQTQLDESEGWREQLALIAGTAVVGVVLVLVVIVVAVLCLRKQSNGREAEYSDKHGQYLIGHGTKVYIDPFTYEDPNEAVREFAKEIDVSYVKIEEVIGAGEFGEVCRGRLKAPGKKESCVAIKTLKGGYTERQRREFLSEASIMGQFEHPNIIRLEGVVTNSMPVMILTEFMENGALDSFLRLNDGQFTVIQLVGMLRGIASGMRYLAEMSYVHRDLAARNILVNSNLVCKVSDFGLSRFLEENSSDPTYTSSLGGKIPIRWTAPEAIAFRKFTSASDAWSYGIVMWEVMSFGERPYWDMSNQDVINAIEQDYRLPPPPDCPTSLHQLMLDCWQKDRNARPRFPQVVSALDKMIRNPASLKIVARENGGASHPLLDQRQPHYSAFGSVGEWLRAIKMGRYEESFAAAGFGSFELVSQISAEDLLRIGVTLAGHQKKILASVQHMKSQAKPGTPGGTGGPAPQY
As to the kind of experiment: EphB4 kinase inhibition assay. Type of assay: biochemical. The procedure:
(§3) Kinase activity and compound inhibition are investigated using one or more of the three assay formats described below. The ATP concentrations for each assay are selected to be close to the Michaelis-Menten constant (KM) for each individual kinase. Dose-response experiments are performed at 10 different inhibitor concentrations in a 384-well plate format. The data are fitted to four-parameter equation (2) below; where Y is the observed signal, X is the inhibitor concentration, Min is the background signal in the absence of enzyme (0% enzyme activity), Max is the signal in the absence of inhibitor (100% enzyme activity), IC50 is the inhibitor concentration at 50% enzyme inhibition and H represents the empirical Hill's slope to measure the cooperativity. Typically H is close to unity. Y=Min+(Max−Min)/(1+(X/IC50)^H) Equation (2) ^33P Phosphoryl Transfer Assay: […]
(§4) Greiner 384-well white, clear bottom, high binding plates are coated with 2 μg/well of protein or peptide substrate in a 50 μL volume overnight at ambient temperature. The coating buffer typically contains 40 μg/mL substrate, 22.5 mM Na2CO3, 27.5 mM NaHCO3, 150 mM NaCl and 3 mM NaN3. The coating solution is aspirated and the plates are washed once with 50 μL of assay buffer and padded dry. Subsequently compounds and enzymes are mixed with γ^33P-ATP (3.3 μCi/nmol) in a total volume of 20 uL in suitable assay buffers. The mixture is incubated at ambient temperature for 1.5-2.5 hrs and terminated by aspiration using a Molecular Devices EMBLA 96-head plate washer. The plates are subsequently washed 6-12 times with PBST or TBS buffer. Scintillation fluid (50 μl/well) is then added, the plates are sealed and activity assessed by liquid scintillation spectrometry using a Perkin Elmer MicroBeta TriLux.
as §2, §1

The target in the next assay is EGFR (Homo sapiens, UniProt P00533). Description: EGFR kinase inhibition assay. Type of assay: biochemical. As for the experimental part:
as §3, §4, §2, §1

EGFR, sequence (P00533 25-1210, species assumed): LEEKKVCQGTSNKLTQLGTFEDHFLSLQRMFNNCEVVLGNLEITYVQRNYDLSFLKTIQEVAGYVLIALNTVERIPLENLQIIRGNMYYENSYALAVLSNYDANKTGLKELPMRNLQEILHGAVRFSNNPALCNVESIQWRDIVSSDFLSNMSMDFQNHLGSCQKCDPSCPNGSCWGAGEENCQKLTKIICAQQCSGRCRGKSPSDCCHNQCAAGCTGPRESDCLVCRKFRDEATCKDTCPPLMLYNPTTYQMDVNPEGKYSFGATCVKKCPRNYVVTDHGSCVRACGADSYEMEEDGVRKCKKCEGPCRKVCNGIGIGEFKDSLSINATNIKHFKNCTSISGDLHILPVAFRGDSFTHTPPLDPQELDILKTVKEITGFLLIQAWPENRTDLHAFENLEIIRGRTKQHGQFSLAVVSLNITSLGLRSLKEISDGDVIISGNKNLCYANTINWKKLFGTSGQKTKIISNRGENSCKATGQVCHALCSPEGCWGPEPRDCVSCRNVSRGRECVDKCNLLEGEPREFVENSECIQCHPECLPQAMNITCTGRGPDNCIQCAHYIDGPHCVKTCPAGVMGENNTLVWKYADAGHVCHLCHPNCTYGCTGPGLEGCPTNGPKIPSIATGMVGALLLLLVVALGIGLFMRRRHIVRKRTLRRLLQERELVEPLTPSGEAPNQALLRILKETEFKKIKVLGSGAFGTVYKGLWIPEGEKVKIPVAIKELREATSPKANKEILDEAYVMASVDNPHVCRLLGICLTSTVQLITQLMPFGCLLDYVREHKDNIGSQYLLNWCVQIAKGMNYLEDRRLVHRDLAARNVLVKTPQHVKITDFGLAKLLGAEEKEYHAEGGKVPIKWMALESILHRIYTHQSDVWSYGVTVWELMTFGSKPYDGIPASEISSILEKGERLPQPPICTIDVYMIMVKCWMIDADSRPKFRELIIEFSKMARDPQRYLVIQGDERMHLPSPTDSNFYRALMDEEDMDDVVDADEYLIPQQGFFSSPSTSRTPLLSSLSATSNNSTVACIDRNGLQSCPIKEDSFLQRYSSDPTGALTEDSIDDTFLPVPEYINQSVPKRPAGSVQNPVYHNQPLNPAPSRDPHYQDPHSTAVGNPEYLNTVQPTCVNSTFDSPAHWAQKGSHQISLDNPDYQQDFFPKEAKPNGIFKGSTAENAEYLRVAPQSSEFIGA
c-Kit, sequence (P10721 26-976): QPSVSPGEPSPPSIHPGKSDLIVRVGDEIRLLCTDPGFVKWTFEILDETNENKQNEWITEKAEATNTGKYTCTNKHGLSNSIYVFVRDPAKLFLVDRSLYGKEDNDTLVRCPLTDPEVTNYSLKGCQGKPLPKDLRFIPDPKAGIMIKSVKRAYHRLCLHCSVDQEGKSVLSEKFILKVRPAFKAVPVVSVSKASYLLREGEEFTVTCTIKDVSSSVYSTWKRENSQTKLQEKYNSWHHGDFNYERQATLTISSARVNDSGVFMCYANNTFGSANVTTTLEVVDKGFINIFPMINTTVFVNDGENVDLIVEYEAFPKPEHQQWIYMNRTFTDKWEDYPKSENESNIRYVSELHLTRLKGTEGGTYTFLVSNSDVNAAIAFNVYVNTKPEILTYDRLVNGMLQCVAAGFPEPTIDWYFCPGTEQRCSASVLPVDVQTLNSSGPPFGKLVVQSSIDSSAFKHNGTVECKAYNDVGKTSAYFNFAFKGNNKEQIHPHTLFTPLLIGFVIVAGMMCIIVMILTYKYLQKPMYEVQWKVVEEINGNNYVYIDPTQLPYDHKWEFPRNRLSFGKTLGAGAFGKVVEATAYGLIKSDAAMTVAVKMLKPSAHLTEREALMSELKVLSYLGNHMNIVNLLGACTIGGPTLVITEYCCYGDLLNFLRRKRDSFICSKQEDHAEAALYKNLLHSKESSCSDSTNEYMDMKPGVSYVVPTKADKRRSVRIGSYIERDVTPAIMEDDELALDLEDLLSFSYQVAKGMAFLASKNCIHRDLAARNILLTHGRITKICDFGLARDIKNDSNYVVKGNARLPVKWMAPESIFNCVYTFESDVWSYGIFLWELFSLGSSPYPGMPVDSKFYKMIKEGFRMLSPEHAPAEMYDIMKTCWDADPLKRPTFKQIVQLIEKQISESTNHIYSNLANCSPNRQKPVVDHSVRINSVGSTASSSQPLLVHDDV

Consider `CN1CCN(c2ccc3nc(-c4cc(-c5ccc(NC(=O)Nc6cccc(Br)c6)cc5)[nH]n4)[nH]c3c2)CC1` [Entry 7, N-(3-bromophenyl)-N′-(4-{3-[6-(4-methylpiperazin-1-yl)-1H-benzimidazol-2-yl]-1H-pyrazol-5-yl}phenyl)urea], for which the IC50 is under 50 nM at c-Kit, under 50 nM at flt-3, over 5000 nM on EphB4 and over 5000 nM against EGFR.

Take `CN1CCN(c2ccc3[nH]c(-c4cc(-c5ccc(NC(=O)Nc6ccc(F)c(C(F)(F)F)c6)cc5)[nH]n4)nc3c2)CC1` [Entry 8, N-[4-fluoro-3-(trifluoromethyl)phenyl]-N′-(4-{3-[5-(4-methylpiperazin-1-yl)-1H-benzimidazol-2-yl]-1H-pyrazol-5-yl}phenyl)urea]: the IC50 against c-Kit was under 50 nM; on flt-3, under 50 nM; at EphB4 it was over 5000 nM; at EGFR, over 5000 nM.

For the compound `CN1CCN(c2ccc3[nH]c(-c4cc(-c5ccc(NC(=O)Nc6ccc(Oc7ccccc7)cc6)cc5)[nH]n4)nc3c2)CC1` [Entry 9, N-(4-{3-[5-(4-methylpiperazin-1-yl)-1H-benzimidazol-2-yl]-1H-pyrazol-5-yl}phenyl)-N′-[4-(phenyloxy)phenyl]urea], the IC50 against c-Kit was under 50 nM; against flt-3, under 50 nM; on EphB4, over 5000 nM; at EGFR, over 5000 nM.

As to `COc1cc(NC(=O)Nc2ccc(-c3cc(-c4nc5ccc(N6CCN(C)CC6)cc5[nH]4)n[nH]3)cc2)cc(OC)c1` [Entry 11, N-[3,5-bis(methyloxy)phenyl]-N′-(4-{3-[6-(4-methylpiperazin-1-yl)-1H-benzimidazol-2-yl]-1H-pyrazol-5-yl}phenyl)urea], the IC50 was under 50 nM on c-Kit, under 50 nM against flt-3, over 5000 nM at EphB4 and over 5000 nM against EGFR.

As for `CN1CCN(c2ccc3[nH]c(-c4cc(-c5ccc(NC(=O)Nc6ccc(OC(F)(F)F)cc6)cc5)[nH]n4)nc3c2)CC1` [Entry 12, N-(4-{3-[5-(4-methylpiperazin-1-yl)-1H-benzimidazol-2-yl]-1H-pyrazol-5-yl}phenyl)-N′-{4-[(trifluoromethyl)oxy]phenyl} urea], the IC50 against c-Kit was under 50 nM; at flt-3, under 50 nM; against EphB4, over 5000 nM; against EGFR, over 5000 nM.

For `CN1CCN(c2ccc3[nH]c(-c4cc(-c5ccc(NC(=O)Nc6ccc(Cl)c(C(F)(F)F)c6)cc5)[nH]n4)nc3c2)CC1` [Entry 14, N-[4-chloro-3-(trifluoromethyl)phenyl]-N′-(4-{3-[5-(4-methylpiperazin-1-yl)-1H-benzimidazol-2-yl]-1H-pyrazol-5-yl}phenyl)urea], the IC50 on c-Kit was under 50 nM; on flt-3, under 50 nM; against EphB4, over 5000 nM; against EGFR, over 5000 nM.

For `CN1CCN(c2ccc3[nH]c(-c4cc(-c5ccc(NC(=O)Nc6cccc(C(F)(F)F)c6)cc5)[nH]n4)nc3c2)CC1` [Entry 15, N-(4-{3-[5-(4-methylpiperazin-1-yl)-1H-benzimidazol-2-yl]-1H-pyrazol-5-yl}phenyl)-N′-[3-(trifluoromethyl)phenyl]urea], the IC50 at c-Kit is under 50 nM; against flt-3 it was under 50 nM; on EphB4 it was 500 to 5000 nM; against EGFR, over 5000 nM.

For the compound `CN1CCN(c2ccc(-c3cc(-c4ccc(NC(=O)Nc5ccc(Cl)c(C(F)(F)F)c5)cc4)[nH]n3)cc2)CC1` [Entry 16, N-[4-chloro-3-(trifluoromethyl)phenyl]-N′-(4-{3-[4-(4-methylpiperazin-1-yl)phenyl]-1H-pyrazol-5-yl}phenyl)urea], the IC50 against c-Kit is under 50 nM; on flt-3, under 50 nM; against EphB4, over 5000 nM; against EGFR it was over 5000 nM.

Turning to `CN1CCN(c2ccc3[nH]c(-c4cc(-c5ccc(NC(=O)Nc6ccc(Cl)cc6)cc5)[nH]n4)nc3c2)CC1` [Entry 18, N-(4-chlorophenyl)-N′-(4-{3-[5-(4-methylpiperazin-1-yl)-1H-benzimidazol-2-yl]-1H-pyrazol-5-yl}phenyl)urea], the IC50 against c-Kit is under 50 nM; on flt-3 it was under 50 nM; at EphB4 it was over 5000 nM; against EGFR it was over 5000 nM.

The values are drawn from US8710038B2, “Pyrazole kinase modulators and methods of use” (Exelixis, Inc., priority 2004, dated 2014).
